This passage reports Activity, IC50 and Emax results from ChEMBL document CHEMBL4813912, “Progress in the Development of Small Molecular Inhibitors of Focal Adhesion Kinase (FAK)” (J Med Chem, 2020).

Experiment [1] relates to OVCAR-3. In words: Cytotoxicity against human OVCAR-3 cells in presence of metformin and carboplatin relative to control. It is filed as functional.
Experiment [2] concerns the target Protein-tyrosine kinase 2-beta (Homo sapiens, UniProt Q14289). In words: Inhibition of pyk2 (unknown origin).
For experiment [3], the target named is T1, Focal adhesion kinase 1 (Homo sapiens, UniProt Q05397).
T1 sequence (Q05397 whole entry): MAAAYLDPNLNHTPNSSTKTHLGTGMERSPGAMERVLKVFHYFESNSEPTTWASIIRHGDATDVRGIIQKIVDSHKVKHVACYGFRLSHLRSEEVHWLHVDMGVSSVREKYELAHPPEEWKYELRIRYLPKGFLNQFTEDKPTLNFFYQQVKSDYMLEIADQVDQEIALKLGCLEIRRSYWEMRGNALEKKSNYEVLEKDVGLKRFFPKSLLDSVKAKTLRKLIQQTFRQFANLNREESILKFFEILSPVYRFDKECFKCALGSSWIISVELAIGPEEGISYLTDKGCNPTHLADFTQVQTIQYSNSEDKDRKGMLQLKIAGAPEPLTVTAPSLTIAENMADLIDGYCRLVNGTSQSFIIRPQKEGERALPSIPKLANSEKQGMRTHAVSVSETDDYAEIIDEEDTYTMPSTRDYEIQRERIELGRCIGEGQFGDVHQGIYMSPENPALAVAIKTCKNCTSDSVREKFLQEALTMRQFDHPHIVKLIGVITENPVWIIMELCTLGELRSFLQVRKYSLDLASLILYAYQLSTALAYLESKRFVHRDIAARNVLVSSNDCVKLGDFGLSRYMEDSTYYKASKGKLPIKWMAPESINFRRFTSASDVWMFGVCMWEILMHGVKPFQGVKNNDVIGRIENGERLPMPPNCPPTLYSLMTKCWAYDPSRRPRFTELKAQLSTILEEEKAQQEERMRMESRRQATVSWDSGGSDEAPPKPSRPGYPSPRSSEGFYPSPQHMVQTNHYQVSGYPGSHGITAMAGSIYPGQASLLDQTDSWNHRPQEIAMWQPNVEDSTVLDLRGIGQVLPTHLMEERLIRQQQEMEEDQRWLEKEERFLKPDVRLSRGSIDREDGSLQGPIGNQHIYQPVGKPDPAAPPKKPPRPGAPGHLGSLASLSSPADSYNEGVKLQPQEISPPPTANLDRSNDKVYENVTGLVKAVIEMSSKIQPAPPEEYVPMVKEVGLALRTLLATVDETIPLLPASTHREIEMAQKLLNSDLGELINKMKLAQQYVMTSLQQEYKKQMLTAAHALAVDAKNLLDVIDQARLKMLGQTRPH
Description: Inhibition of FAK (unknown origin) (410 to 689 residues) assessed as reduction in poly(Glu-Tyr) phosphorylation using poly (Glu,Tyr) as substrate by ELISA-based assay
Experiment [4] has as its system MDA-MB-231. In words: Antiproliferative activity against human MDA-MB-231 cells incubated for 72 hrs by MTT assay. It is filed as functional, cell-based. Particulars: MDA-MB-231, 72 h.
Experiment [5] relates to T47D. In words: Antiproliferative activity against human T-47D cells incubated for 72 hrs by MTT assay. It is filed as functional, cell-based.
For experiment [6], the system named is BT-474. Description: Antiproliferative activity against human BT-474 cells incubated for 72 hrs by MTT assay. It is filed as functional, cell-based. Particulars: BT-474, 72 h.
The subject of experiment [7] is MCF7. Description: Antiproliferative activity against human MCF7 cells incubated for 72 hrs by MTT assay. It is filed as functional, cell-based. Particulars: MCF7, 72 h.
For experiment [8], the target named is von Hippel-Lindau disease tumor suppressor/Focal adhesion kinase 1 (Homo sapiens) (UniProt Q05397+P40337). In words: Induction of VHL-mediated FAK degradation in human PC3 cells at 10 to 10000 nM incubated for 24 hrs by Western blot analysis relative to control. It is filed as cell-based. Particulars: PC-3, dose 10-10000 nM.
Chain of von Hippel-Lindau disease tumor suppressor/Focal adhesion kinase 1 (Homo sapiens) (P40337 whole entry partner): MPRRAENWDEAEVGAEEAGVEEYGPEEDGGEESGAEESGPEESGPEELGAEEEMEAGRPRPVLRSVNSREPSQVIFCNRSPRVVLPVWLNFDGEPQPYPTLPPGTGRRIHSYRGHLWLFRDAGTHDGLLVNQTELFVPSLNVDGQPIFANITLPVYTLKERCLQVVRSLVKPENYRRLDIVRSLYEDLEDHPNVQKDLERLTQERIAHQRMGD
Chain of von Hippel-Lindau disease tumor suppressor/Focal adhesion kinase 1 (Homo sapiens) (Q05397 2-1052 limits assumed): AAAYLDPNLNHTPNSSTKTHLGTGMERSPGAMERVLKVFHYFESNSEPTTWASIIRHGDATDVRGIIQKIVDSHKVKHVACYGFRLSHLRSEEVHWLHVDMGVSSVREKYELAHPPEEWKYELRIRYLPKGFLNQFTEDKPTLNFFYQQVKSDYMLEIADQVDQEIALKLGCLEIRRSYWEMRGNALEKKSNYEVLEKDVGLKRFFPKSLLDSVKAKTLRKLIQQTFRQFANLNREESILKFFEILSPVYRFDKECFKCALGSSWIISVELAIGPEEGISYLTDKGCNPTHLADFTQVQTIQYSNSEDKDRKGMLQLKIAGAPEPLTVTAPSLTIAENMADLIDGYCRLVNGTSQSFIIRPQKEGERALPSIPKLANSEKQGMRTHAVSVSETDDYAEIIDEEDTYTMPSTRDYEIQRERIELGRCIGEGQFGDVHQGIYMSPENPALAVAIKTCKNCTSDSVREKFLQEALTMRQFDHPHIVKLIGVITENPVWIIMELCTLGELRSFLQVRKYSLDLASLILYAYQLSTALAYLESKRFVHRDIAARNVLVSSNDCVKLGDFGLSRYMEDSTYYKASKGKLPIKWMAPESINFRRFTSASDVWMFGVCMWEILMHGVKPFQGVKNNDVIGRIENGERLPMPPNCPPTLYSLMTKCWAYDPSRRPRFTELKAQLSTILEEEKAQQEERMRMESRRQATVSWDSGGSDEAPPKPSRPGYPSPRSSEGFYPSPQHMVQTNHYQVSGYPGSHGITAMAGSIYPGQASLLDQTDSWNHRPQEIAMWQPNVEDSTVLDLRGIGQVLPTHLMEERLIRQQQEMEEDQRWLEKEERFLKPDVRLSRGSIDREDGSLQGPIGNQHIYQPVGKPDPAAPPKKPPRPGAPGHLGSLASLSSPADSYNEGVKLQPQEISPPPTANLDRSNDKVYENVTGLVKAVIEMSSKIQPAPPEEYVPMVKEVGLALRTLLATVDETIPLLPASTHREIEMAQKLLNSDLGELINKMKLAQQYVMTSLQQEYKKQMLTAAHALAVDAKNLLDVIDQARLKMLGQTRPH
For experiment [9], the system named is RD. Description: Cytotoxicity against human RD cells incubated for 96 hrs by DIMSCAN method. It is filed as functional, cell-based.
The target in experiment [10] is T1, Focal adhesion kinase 1. In words: Inhibition of FAK in human U87MG cells assessed as reduction in phosphorylation at Y397 residue incubated for 30 mins by Western blot analysis.
In experiment [11] the target is T1, Focal adhesion kinase 1. Description: Inhibition of FAK in human A549 cells assessed as reduction in phosphorylation at Y397 residue incubated for 30 mins by Western blot analysis.
Experiment [12] addresses T1, Focal adhesion kinase 1. In words: Inhibition of FAK in human OVCAR8 cells assessed as reduction in phosphorylation at Y397 residue incubated for 30 mins by Western blot analysis.

Chain of Protein-tyrosine kinase 2-beta (Q14289 whole entry): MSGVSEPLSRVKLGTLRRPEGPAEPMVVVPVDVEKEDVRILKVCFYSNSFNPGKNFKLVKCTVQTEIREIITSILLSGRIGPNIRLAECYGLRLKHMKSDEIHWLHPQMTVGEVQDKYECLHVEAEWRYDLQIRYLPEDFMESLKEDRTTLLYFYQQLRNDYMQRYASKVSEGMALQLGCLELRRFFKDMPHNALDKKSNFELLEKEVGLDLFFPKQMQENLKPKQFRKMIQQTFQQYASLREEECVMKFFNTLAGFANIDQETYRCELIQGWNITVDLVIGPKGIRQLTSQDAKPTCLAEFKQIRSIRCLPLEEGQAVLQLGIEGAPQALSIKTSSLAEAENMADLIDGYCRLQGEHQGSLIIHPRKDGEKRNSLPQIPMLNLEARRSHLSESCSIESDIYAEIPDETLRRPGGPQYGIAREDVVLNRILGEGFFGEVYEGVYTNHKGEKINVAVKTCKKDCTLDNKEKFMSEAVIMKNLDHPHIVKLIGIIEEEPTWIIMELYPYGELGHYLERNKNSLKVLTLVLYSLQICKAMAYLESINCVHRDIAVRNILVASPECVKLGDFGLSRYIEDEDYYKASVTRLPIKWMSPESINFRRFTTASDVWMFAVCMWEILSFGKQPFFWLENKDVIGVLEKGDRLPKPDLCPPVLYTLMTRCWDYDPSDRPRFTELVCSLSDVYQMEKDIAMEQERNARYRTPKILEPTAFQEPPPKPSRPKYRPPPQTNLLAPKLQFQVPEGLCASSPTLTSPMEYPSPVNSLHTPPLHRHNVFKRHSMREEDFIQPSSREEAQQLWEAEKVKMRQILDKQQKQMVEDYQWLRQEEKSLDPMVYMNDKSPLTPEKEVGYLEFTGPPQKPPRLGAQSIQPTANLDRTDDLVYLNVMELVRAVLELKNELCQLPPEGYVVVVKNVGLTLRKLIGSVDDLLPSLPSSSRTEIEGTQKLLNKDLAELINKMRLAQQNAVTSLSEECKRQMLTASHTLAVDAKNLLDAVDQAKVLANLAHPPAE

For the molecule `CS(=O)(=O)c1cccc(CNc2nc(Nc3ccc4c(c3)CC(=O)N4)ncc2C(F)(F)F)c1`, in experiment [1], the Activity is 94%. Also, the concentration for half-maximal inhibition (IC50) in experiment [2] is 1000 nM; in [3] it was 4 nM.
As to `CC1=CC[C@@]2(O)[C@H](CC[C@]2(C)O)C(C)(C)[C@@H]1CC[C@H]1[C@]2(C)CC[C@H](OC(=O)c3ccc(Cl)c(Cl)c3)C(C)(C)O[C@H]2CC[C@@]1(C)O`, the half-maximal inhibitory concentration (IC50) in experiment [4] turned out to be 7.5 µM; in [5], 25.1 µM; in experiment [6], 20.1 µM; in experiment [7], 15.2 µM.
In the case of `Cc1ncsc1-c1ccc(CNC(=O)[C@@H]2C[C@@H](O)CN2C(=O)[C@@H](NC(=O)CCOCCOc2ccc(Nc3ncc(C(F)(F)F)c(NCc4cccc(N(C)S(C)(=O)=O)c4)n3)cc2)C(C)(C)C)cc1`, the Emax in [8] came to 99%.
In turn, `CNC(=O)c1ccccc1Nc1cc(Nc2ccc(N3CCOCC3)cc2OC)ncc1C(F)(F)F` [VS-4718] had an IC50 in [9] of 1220 nM.
`CONC(=O)c1ccccc1Nc1cc(Nc2cc(C)nn2C(C)C)ncc1Cl` [GSK-2256098]: the concentration for half-maximal inhibition (IC50) stood at 8.5 nM in experiment [10], 12 nM in experiment [11] and 15 nM in [12].
